Assay results: ChEMBL document CHEMBL1146974, “Identification and structure-activity relationships of a new series of Melanocortin-4 receptor antagonists” (Bioorg Med Chem Lett, 2006)

Experiments:
Melanocortin receptor 4 [1] = molecular target: T1, Melanocortin receptor 4 (Homo sapiens, UniProt P32245); assay: Binding affinity to MC4R by membrane filtration assay
Melanocortin receptor 4 [2] = molecular target: T1, Melanocortin receptor 4; assay: Antagonist activity against MC4R by cAMP functional assay
[3] = molecular target: Voltage-gated inwardly rectifying potassium channel KCNH2 (Homo sapiens, UniProt Q12809); assay: Binding affinity to hERG
Voltage-gated inwardly rectifying potassium channel KCNH2, sequence (Q12809 whole entry): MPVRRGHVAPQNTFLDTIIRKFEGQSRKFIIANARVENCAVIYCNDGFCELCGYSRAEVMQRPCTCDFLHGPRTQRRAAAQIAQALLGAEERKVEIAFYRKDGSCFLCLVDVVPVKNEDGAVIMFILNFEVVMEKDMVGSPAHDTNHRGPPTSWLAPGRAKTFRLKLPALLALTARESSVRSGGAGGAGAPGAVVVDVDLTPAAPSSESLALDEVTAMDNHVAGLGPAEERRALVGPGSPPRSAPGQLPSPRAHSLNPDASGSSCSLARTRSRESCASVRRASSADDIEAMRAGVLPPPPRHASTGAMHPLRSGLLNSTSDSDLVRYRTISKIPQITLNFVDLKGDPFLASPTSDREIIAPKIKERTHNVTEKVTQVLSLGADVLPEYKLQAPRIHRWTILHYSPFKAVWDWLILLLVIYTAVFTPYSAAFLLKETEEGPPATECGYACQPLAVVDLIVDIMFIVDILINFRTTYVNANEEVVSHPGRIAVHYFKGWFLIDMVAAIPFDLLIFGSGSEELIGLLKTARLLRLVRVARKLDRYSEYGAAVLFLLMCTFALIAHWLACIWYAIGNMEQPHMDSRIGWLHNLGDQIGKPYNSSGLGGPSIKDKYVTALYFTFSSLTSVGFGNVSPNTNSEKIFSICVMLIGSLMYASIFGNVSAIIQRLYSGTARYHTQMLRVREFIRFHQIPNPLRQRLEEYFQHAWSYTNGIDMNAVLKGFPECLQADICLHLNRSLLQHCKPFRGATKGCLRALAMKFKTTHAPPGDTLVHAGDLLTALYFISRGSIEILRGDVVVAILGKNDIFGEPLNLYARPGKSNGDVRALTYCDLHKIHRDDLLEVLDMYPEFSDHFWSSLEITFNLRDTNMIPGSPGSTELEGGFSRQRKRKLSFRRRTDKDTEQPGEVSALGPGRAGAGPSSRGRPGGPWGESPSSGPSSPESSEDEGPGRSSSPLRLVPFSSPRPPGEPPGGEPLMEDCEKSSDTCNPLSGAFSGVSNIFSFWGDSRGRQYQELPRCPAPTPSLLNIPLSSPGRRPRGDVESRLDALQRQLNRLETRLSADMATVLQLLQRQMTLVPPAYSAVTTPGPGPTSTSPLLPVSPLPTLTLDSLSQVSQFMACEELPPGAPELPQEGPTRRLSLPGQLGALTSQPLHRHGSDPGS

[4] = Oral bioavailability in rat; format: ADME, organism-based; conditions: in vivo
[5] = Plasma half life in iv dosed rat; format: ADME, organism-based

T1 sequence (P32245 whole entry): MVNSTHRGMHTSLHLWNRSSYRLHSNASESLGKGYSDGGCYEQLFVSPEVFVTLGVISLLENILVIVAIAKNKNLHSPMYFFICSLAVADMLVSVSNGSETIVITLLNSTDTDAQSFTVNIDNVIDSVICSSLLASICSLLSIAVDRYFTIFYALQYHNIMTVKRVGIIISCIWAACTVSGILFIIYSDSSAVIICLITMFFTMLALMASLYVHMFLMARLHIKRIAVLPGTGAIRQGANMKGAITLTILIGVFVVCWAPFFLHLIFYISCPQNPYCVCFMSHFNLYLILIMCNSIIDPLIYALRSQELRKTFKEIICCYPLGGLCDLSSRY

Compound	Ki (Melanocortin receptor 4 [1]) [nM]	IC50 (Melanocortin receptor 4 [2]) [nM]	Ki [3] [nM]	bioavailability [4] [%]	half-life [5] [h]
CCN(CC)CCCC(C)/N=C(/NC)NC(=O)c1cccc(F)c1CCc1cc(Br)ccc1OC (stereo not given)	6300	–	–	–	–
COc1ccc(Br)cc1CCc1c(F)cccc1C(=O)/N=C(\N)NCCCCN(C)Cc1ccccc1	5.1	180	–	–	–
CCN(CC)CCCC(C)/N=C(\NC(=O)c1cccc(F)c1CCc1cc(Br)ccc1OC)NC(C)C (stereo not given)	2500	17000	–	–	–
CCN(CC)CCCC(C)/N=C(/N)NC(=O)c1cccc(F)c1CCc1cccc2ccccc12 (stereo not given)	89	1500	–	–	–
COc1ccc(Br)cc1CCc1c(F)cccc1C(=O)/N=C(\N)NCCCCN1CCC2CCCCC2C1 (stereo not given)	21	390	–	–	–
CCN(CC)CCCC(C)N=C(N)NC(=O)c1cccc(F)c1CCc1ccc2ccccc2c1 (stereo not given)	690	1800	–	–	–
CCN(CC)CCCC(C)N=C(N)NC(=O)c1cccc(F)c1CCc1cc(OC)cc(OC)c1 (stereo not given)	14	170	–	–	–
COc1ccc(Br)cc1CCc1c(F)cccc1C(=O)/N=C(\N)NCCCCN(C)Cc1cccc2ccccc12	57	1200	–	–	–
COc1ccc(Br)cc1CCc1c(F)cccc1C(=O)NC(N)=NCC1CCNCC1	13	31	–	–	–
CCN(CC)CCCC(C)N=C(N)NC(=O)c1cccc(Cl)c1CCc1cc(Br)ccc1OC (stereo not given)	0.83	260	–	–	–
CCN1CCC(C/N=C(/N)NC(=O)c2cccc(F)c2CCc2cc(Br)ccc2OC)CC1	2.8	97	–	–	–
CCN(CC)CCCC(C)/N=C(/N)NC(=O)c1cccc(F)c1CCc1cc(Br)ccc1OC (stereo not given)	4.3	130	–	–	–
CCN(CC)CCCC(C)N=C(N)NC(=O)c1cccc(F)c1CCc1ccccc1Cl (stereo not given)	26000	> 33000	–	–	–
CCCCN=C(N)NC(=O)c1cccc(F)c1CCc1cc(Br)ccc1OC	920	–	–	–	–
COc1ccc(Br)cc1CCc1c(F)cccc1C(=O)/N=C(\N)NCCN1CCCC1	190	4500	–	–	–
COc1ccc(Br)cc1CCc1c(Cl)cccc1C1=NCCN1	–	–	840	–	–
COc1ccc(Br)cc1CCc1c(F)cccc1C(=O)/N=C(\N)NCCCCN1CCCCC1	0.58	70	–	–	–
COc1ccc(Br)cc1CCc1c(Cl)cccc1C(=O)N=C(N)N	700	2580	–	–	–
COc1ccc(Br)cc1CCc1c(F)cccc1C(=O)/N=C(\N)NCCCCN1CCc2ccccc2C1	26	650	–	–	–
CCN(CC)CCCC(C)N=C(N)NC(=O)c1ccsc1CCc1cc(Br)ccc1OC (stereo not given)	11	260	–	–	–
COc1ccc(Br)cc1CCc1c(F)cccc1C(=O)/N=C(\N)NCCCNC1CCCCC1	80	5700	–	–	–
COc1ccc(Br)cc1CCc1c(F)cccc1C(=O)NC(N)=NCCC1CCCCC1	2600	–	–	–	–
COc1ccc(Br)cc1CCc1c(F)cccc1C(=O)NC(N)=NCCCN1CCN(C)CC1	64	670	–	–	–
CCN(CC)CCCC(C)/N=C(\NC(=O)c1cccc(F)c1CCc1cc(Br)ccc1OC)Nc1ccccc1 (stereo not given)	4100	–	–	–	–
CCN(CC)CCCC(C)N=C(N)NC(=O)c1cccc(F)c1CCc1cc(Br)ccc1Cl (stereo not given)	110	660	–	–	–
COc1ccc(Br)cc1CCc1c(F)cccc1C(=O)/N=C(\N)NCC(C)C	770	8500	–	–	–
COc1ccc(Br)cc1CCc1c(F)cccc1C1=NCCN1	–	–	–	4.6	1
COc1ccc(Br)cc1CCc1c(F)cccc1C(=O)/N=C(\N)NCCCN1CCCCC1	3.2	330	–	6.3	31
CCN(CC)CCCC(C)N=C(N)NC(=O)c1cccc(F)c1OCc1cc(Br)ccc1OC (stereo not given)	900	530	–	–	–
